From the supplement of paper PMC10307832

Legend:
Experiment in all cases: relative viability (nuclei count vs DMSO), 5 days (fraction); higher = more cells survive
[1] = compound: CCCS(=O)(=O)Nc1ccc(F)c(C(=O)c2c[nH]c3ncc(-c4ccc(Cl)cc4)cc23)c1F [Vemurafenib] + Nc1ncn([C@H]2C[C@H](O)[C@@H](CO)O2)c(=O)n1 [Decitabine] (partner 2 µM)
Outline: (§1)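 Lung cancer cell lines in 1536-well plates were dosed by pin tool the day after seeding, either with one drug alone or with a fixed anchor-drug dose plus five library-drug doses (not always all listed) in √10 steps. After 5 days, cells were fixed and their nuclei stained in one step (final 0.05% Triton X-100, 1% formaldehyde, 1 ug/ml Hoechst), then counted on 4× images. Relative viability is the nuclei count in treated wells divided by that in vehicle wells. Values are medians of duplicate plates.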

[2] = compound: CCCS(=O)(=O)Nc1ccc(F)c(C(=O)c2c[nH]c3ncc(-c4ccc(Cl)cc4)cc23)c1F [Vemurafenib] + O=C(CCCCCCC(=O)Nc1ccccc1)NO [Vorinostat] (partner 1 µM)
Outline: as §1

[3] = compound: COc1cccc2cc(-c3nc([C@H]4CC[C@H](C(=O)O)CC4)n4ncnc(N)c34)[nH]c12 [OSI-027] + Cc1nc(Nc2ncc(C(=O)Nc3c(C)cccc3Cl)s2)cc(N2CCN(CCO)CC2)n1 [Dasatinib] (partner 0.075 µM)
Outline: as §1

[4] = compound: Cc1nc(NC(=O)N2CCC[C@H]2C(N)=O)sc1-c1ccnc(C(C)(C)C(F)(F)F)c1 [Alpelisib] + CC1(C)CCC(c2ccc(Cl)cc2)=C(CN2CCN(c3ccc(C(=O)NS(=O)(=O)c4ccc(N[C@H](CCN5CCOCC5)CSc5ccccc5)c(S(=O)(=O)C(F)(F)F)c4)cc3)CC2)C1 [Navitoclax] (partner 0.5 µM)
Outline: as §1

Cell Line	relative viability ([1]; first compound 0.03162 µM)	relative viability ([1]; first compound 0.3162 µM)	relative viability ([1]; first compound 1 µM)	relative viability ([2]; first compound 0.03162 µM)	relative viability ([2]; first compound 0.3162 µM)	relative viability ([2]; first compound 1 µM)	relative viability ([3]; first compound 0.01 µM)	relative viability ([3]; first compound 0.03162 µM)	relative viability ([3]; first compound 0.1 µM)	relative viability ([3]; first compound 0.3162 µM)	relative viability ([3]; first compound 1 µM)	relative viability ([4]; first compound 0.04 µM)	relative viability ([4]; first compound 0.1265 µM)	relative viability ([4]; first compound 0.4 µM)	relative viability ([4]; first compound 1.265 µM)	relative viability ([4]; first compound 4 µM)	relative viability ([1]; first compound 0.1 µM)	relative viability ([2]; first compound 0.1 µM)
H3255	0.524	0.604	0.605	0.758	0.709	0.638	0.291	0.377	0.388	0.292	0.217	0.463	0.47	0.524	0.384	0.407	–	–
NCI-H2170	0.435	0.441	0.455	0.733	0.737	0.754	0.635	0.506	0.506	0.56	0.315	0.54	0.638	0.52	0.316	0.308	–	–
HCC-366	0.332	–	0.333	0.271	–	0.306	0.679	0.708	0.61	0.477	0.395	1.02	1.08	1.05	0.681	0.334	0.327	0.38
EKVX	0.368	0.37	0.397	0.712	0.745	0.936	0.516	0.472	0.515	0.429	0.316	0.969	0.903	1.12	0.84	0.75	–	–
NCI-H1734	0.569	0.506	0.506	0.809	0.759	0.702	0.473	0.408	0.45	0.388	0.282	0.835	0.758	0.794	0.714	0.47	0.486	0.783
NCI-H2347	0.588	0.562	0.613	0.542	0.52	0.624	0.281	0.379	0.205	0.22	0.268	0.919	0.745	0.868	0.665	0.605	0.538	0.539
SK-MES-1	0.384	0.38	0.386	1.06	0.949	1.01	0.293	0.407	0.295	0.25	0.247	1.16	1.25	1.29	1.02	0.793	0.334	–
NCI-H3122	0.429	0.481	0.504	0.962	1.01	1.04	0.831	0.844	0.923	0.631	0.391	1.03	0.982	1.02	0.906	0.81	0.485	0.916
NCI-H23	0.287	0.353	0.322	0.53	0.561	0.402	0.718	0.899	0.867	0.746	0.46	0.708	0.856	0.851	0.532	0.535	0.272	0.588
HCC-15	0.561	0.59	0.77	0.775	0.899	0.805	0.551	0.656	0.624	0.486	0.366	0.627	0.7	0.74	0.598	0.454	0.64	0.8
COR-L23	0.417	0.336	0.424	0.443	0.373	0.441	0.513	0.422	0.424	0.386	0.208	0.923	1.02	1.07	0.789	0.753	0.464	0.412
NCI-H2009	0.394	0.341	0.438	0.813	0.715	0.665	0.271	0.264	0.248	0.213	0.207	1.24	1.14	1.16	1.08	1.13	0.341	0.731
NCI-H1755	0.705	0.73	0.711	0.749	0.68	0.778	0.392	0.458	0.39	0.42	0.229	1.05	0.979	1.04	0.93	0.705	0.616	0.728
LCLC-97TM1	–	0.242	0.213	–	0.777	0.42	0.91	0.907	0.849	0.746	0.573	0.411	0.371	0.33	0.206	0.142	0.236	0.74
NCI-H2085	0.495	0.536	0.597	0.703	0.618	0.968	0.199	0.222	0.188	0.227	0.211	1.2	1.06	1.14	0.914	1.11	0.529	0.736
NCI-H647	0.478	0.38	0.444	0.411	0.6	0.442	0.126	0.14	0.157	0.171	0.071	1.04	1.03	1.22	0.83	0.948	0.396	0.643
BEN	0.577	0.366	0.675	0.494	0.402	0.503	0.304	0.567	0.273	0.218	0.169	0.0833	0.0642	0.161	0.0705	0.0615	0.756	0.592
NCI-H1944	0.488	0.45	0.456	0.538	0.671	0.515	0.192	0.204	0.191	0.178	0.162	0.964	1.13	1.09	0.824	0.617	–	–
NCI-H1395	0.726	0.706	0.72	0.627	0.499	0.709	0.385	0.398	0.373	0.341	0.343	1.18	1.12	1.45	0.984	0.927	0.698	0.707
201T	0.821	0.886	0.799	0.944	0.944	0.986	0.594	0.567	0.588	0.504	0.398	1.16	1.16	1.2	1.15	1.14	0.825	0.845
NCI-H2405	0.668	–	0.736	0.911	–	1.03	0.2	0.204	0.185	0.209	0.178	1.05	0.894	0.798	0.596	0.789	0.678	0.987
RERF-LC-KJ	0.639	0.632	0.716	0.616	0.625	0.709	0.835	0.776	0.748	0.557	0.349	0.768	0.931	0.935	0.626	0.741	0.678	0.659
NCI-H596	0.974	0.922	0.864	0.587	0.465	0.497	0.588	0.55	0.606	0.562	0.564	0.928	0.919	0.815	0.52	0.418	0.959	0.742
NCI-H1993	0.513	0.651	0.713	0.739	1.02	0.876	0.516	0.543	0.469	0.541	0.549	1.11	0.879	0.874	0.659	0.702	–	–
EPLC-272H	0.337	0.472	0.399	0.553	0.528	0.543	0.336	0.314	0.36	0.268	0.102	1.16	1.05	1.19	0.722	0.79	0.367	0.4
NCI-H1915	0.244	0.26	0.244	0.468	0.455	0.478	0.289	0.307	0.279	0.24	0.145	0.8	0.829	0.82	0.764	0.504	0.253	0.468
LC-2-ad	0.8	0.859	0.796	0.627	0.364	0.687	0.585	0.537	0.494	0.455	0.333	0.441	0.394	0.364	0.332	0.285	0.706	0.669
NCI-H2126	0.559	0.599	0.552	0.761	0.869	0.633	0.562	0.56	0.504	0.374	0.45	0.768	0.865	0.816	0.618	0.525	0.542	0.576
HOP-62	0.196	0.216	0.2	0.515	0.583	0.484	0.6	0.675	0.591	0.556	0.301	1	0.893	1.12	0.606	1.06	0.202	0.593
HARA	0.458	0.673	0.703	0.424	0.399	0.54	0.227	0.247	0.25	0.253	0.209	1.13	1.17	1.16	1.2	0.575	0.368	0.517
